Consider two molecules from patent US7235649B2, “Isolated GRP94 ligand binding domain polypeptide and nucleic acid encoding same, and screening methods employing same” (Duke University, priority 2000, dated 2007).

The target of test [1] is N-terminal nucleotide binding pocket of Hsp90 (Saccharomyces cerevisiae, UniProt P02829). The note with it: Prodromou et al. (1997); read-out: Kd of ATP for Hsp90; cited from earlier work.
For another test, the system named is BiP. Put plainly: [32P]ATP binding assay (nitrocellulose filtration). More on the design: species or system porcine. The note with it: 50 μM [32P]ATP, 1 hour on ice. The procedure: BiP was purified by the following procedure. A lumenal protein fraction obtained from porcine pancreas rough microsomes was cycled overnight through a 1 ml ADP-agarose and a 1 ml ATP-agarose (Sigma Chemical Co. of St. Louis, Mo.) column coupled in series. […] The BiP containing fractions were identified by SDS-PAGE, and dialyzed against 2×4 L of buffer A (110 mM KOAc, 20 mM NaCl, 25 mM K-Hepes, pH 7.2, 2 mM Mg(OAc)2 0.1 mM CaCl2). The protein sample was then applied to a SUPERDEX® 26/60 column (Amersham Pharmacia Biotech of Piscataway, N.J.) equilibrated in buffer A, and the BiP containing fractions, again identified by SDS-PAGE, were pooled and concentrated by centrifugal ultrafiltration (CENTRICON-30®; Amicon of Beverly, Mass.).
(§1) ATP Binding Assay. Six μg of GRP94, BiP, and Hsp90 was incubated with 50 μM yZ[^32P] ATP (1000 μCi/μmol) (Amersham Pharmacia Biotech of Piscataway, N.J.) in buffer B on ice for 1 hour. Nitrocellulose filters (BA85) (Schleicher & Schuell of Keene, N.H.) were individually wet in buffer B before use, and bound versus free [^32P]-ATP was separated by vacuum filtration. Filters were washed with 3×2 mL of ice cold buffer B, placed in 5 mL of scintillation fluid, vortexed, and counted.

Test [2] has as its target T1, GRP94 (Sus scrofa, UniProt Q29092). Nature of the test: [32P]ATP binding assay (nitrocellulose filtration). Set-up: GRP94 was purified from porcine pancreas rough microsomes; from tissue; host or cells: porcine pancreas rough microsomes; species or system porcine. The note with it: 50 μM [32P]ATP, 1 hour on ice. As to the method:
as §1

In test [3] the target is T1, GRP94. Put plainly: Tryptophan fluorescence (ligand-induced conformational change). To be noted: 50 μM NECA, 50 μM geldanamycin, 2.5 mM ATP or 2.5 mM ADP, 1 hour at 37° C.
Description: Tryptophan Fluorescence. Tryptophan fluorescence measurements were conducted in a FLUOROMAX™ spectrofluorometer (Spex Industries, Inc. of Edison, N.J.) with the slit widths set to 1 nm for both excitation and emission. […] All spectra were corrected by subtraction of buffer or buffer plus ligand samples. […] Samples were then cooled to room temperature, transferred to a quartz cuvette, and the spectra collected.
Test [4] deals with T1, GRP94. Nature of the test: [3H]-NECA competitive displacement assay. Set-up: GRP94 was purified from porcine pancreas rough microsomes; from tissue; host or cells: porcine pancreas rough microsomes. The test is classed as binding, porcine.
Test [5] deals with Hsp90. Put plainly: [32P]ATP binding assay (nitrocellulose filtration). More on the design: species or system rat. To be noted: 50 μM [32P]ATP, 1 hour on ice. As to the method:
Hsp90 was purified from rat liver cytosol as follows. Cytosol was adjusted to 30% ammonium sulfate and stirred for 60 min on ice. The solution was centrifuged at 20,000×g in a Sorvall SS34 rotor for 15 minutes and the supernatant collected and filtered through a 0.22 μm filter. The filtered supernatant was supplemented with protease inhibitors (1 μg/ml pepstatin, 1 μg/ml leupeptin, 20 μg/ml SBTI, and 0.5 mM PMSF) and loaded onto a phenyl-SUPEROSE™ HR10/10 column (Amersham Pharmacia Biotech of Piscataway, N.J.). After washing, the bound proteins were eluted with a gradient of 30–0% saturated ammonium sulfate in 10 mM Tris/HCl, pH 7.5, 1 mM EGTA, 0.5 mM DTT and the Hsp90 containing fractions were identified by SDS-PAGE. The Hsp90 containing fractions were then pooled and dialyzed 2×3 hr against 2 L of low salt buffer (10 mM NaCl, 25 mM Tris, pH 7.8). The dialyzed sample was then filtered through a 0.22 μm filter, and injected onto a MONO-Q™ HR 10/10 column (Amersham Pharmacia Biotech of Piscataway, N.J.) equilibrated in low salt buffer. The column was eluted with a gradient of 10 mM–750 mM NaCl in 25 mM Tris, pH 7.8. The Hsp90-containing fractions were identified by SDS-PAGE and pooled.
ATP Binding Assay. Six μg of GRP94, BiP, and Hsp90 was incubated with 50 μM yZ[^32P] […] Filters were washed with 3×2 mL of ice cold buffer B, placed in 5 mL of scintillation fluid, vortexed, and counted.

Test [6] has as its system HSP90. Put plainly: Conformational analysis by tryptic proteolysis and SDS-PAGE. The test is classed as biochemical. To be noted: bis-ANS treatment.
Description: Conformational Analysis by Proteolysis. […] Samples were then combined with 0.1% trypsin and digested for 30 minutes at 37° C. An equal volume of SDS-PAGE sample buffer was added and the samples were snap frozen in liquid nitrogen. Immediately prior to gel analysis, samples were thawed and boiled for 5 minutes. […] Gels were fixed and stained with Coomassie Blue.
The target in test [7] is T1, GRP94. Put plainly: Identification of the bis-ANS binding site by photo-crosslinking, trypsin digestion and Edman sequencing. The note with it: 50 μM bis-ANS photo-crosslinked 15 minutes on ice. More on the design: GRP94 was purified from porcine pancreas rough microsomes; from tissue; host or cells: porcine pancreas rough microsomes; species or system porcine.
For test [8], the target named is T1, GRP94. The test is classed as biochemical, porcine. The note with it: bis-ANS treated GRP94, ten-fold molar excess [125I]-VSV8, 30 min at 37° C. More on the design: GRP94 was purified from porcine pancreas rough microsomes; from tissue; host or cells: porcine pancreas rough microsomes.
Test [9] has as its target T1, GRP94. Put plainly: Fluorophore binding reactions with native or heat shocked GRP94 (fluorescence emission).
In test [10] the target is T1, GRP94. Put plainly: Far-UV circular dichroism. Set-up: GRP94 was purified from porcine pancreas rough microsomes; from tissue; host or cells: porcine pancreas rough microsomes. The test is classed as biochemical, porcine. To be noted: 1 μM GRP94, 10 μM bis-ANS 2 hours. The procedure: Circular Dichroism Measurements. Far-UV CD spectrometry was performed on an AVIV Associates 62DS™ circular dichroism spectrometer (AVIV Associates of Lakewood, N.J.). Samples were analyzed in a 1 mm path length quartz cuvette at 37° C. GRP94 samples (1 μM) were prepared in standard phosphate buffered saline solution as buffer A produced unacceptable dynode voltages in the relevant region of the spectrum. GRP94 was incubated with 10 μM bis-ANS for 2 hours at 37° C. prior to obtaining spectra. Spectra were recorded from 300 to 195 nm. The α-helical content of GRP94 was calculated from the molar ellipticity at 222 nm. See Myers & Jakoby (1975) J Biol Chem 250:3785–3789.
To gain further insight into the nature of the bis-ANS dependent conformational change, GRP94 was subjected to heat shocked or treated with bis-ANS and far-UV CD spectra obtained (FIG. 5).
For orientation: Circular dichroism is widely used to follow secondary structure.

Test [11] addresses T1, GRP94. Put plainly: Citrate synthase thermal aggregation assay (GRP94 chaperone activity). Format: biochemical, porcine. More on the design: GRP94 was purified from porcine pancreas rough microsomes; from tissue; host or cells: porcine pancreas rough microsomes. To be noted: 1 μM GRP94 preincubated two hours with 10 μM bis-ANS, 0.15 μM citrate synthase, 43° C. The procedure:
Citrate Synthase Aggregation Assays. The effects of GRP94 on the thermal aggregation of citrate synthase were assayed by the methods described by Buchner et al. (1998) Methods Enzymol 290:323–338. Samples containing no protein, or GRP94 (1 μM), were incubated in 40 mM HEPES pH 7.5 for two hours at 37° C. with either 0.2% DMF or 10 μM bis-ANS. The samples were then warmed to 43° C. for five minutes and placed in a spectrofluorometer thermostatted at 43° C. Citrate synthase was then added to 0.15 μM final concentration and the thermal aggregation of the enzyme followed by light scattering. Excitation and emission wavelengths were both 500 nm with 2 nm slit width. The time course of citrate synthase aggregation was followed for 1000 seconds.
To determine if the bis-ANS-dependent conformational changes in GRP94 were of functional significance, the molecular chaperone activities of native, heat shocked and bis-ANS treated GRP94 were evaluated in a thermal aggregation assay, as described by Jakob et al. (1995) J Biol Chem 270:7288–7294 and Buchner et al. (1998) Methods Enzymol 290:323–338. […] Following experimental treatment of the GRP94, reactions were equilibrated at 43° C., citrate synthase then added and aggregation, as represented by light scattering, was measured.

Test [12] addresses T1, GRP94. Nature of the test: Blue native polyacrylamide gel electrophoresis (oligomeric state). Format: biochemical, porcine. Set-up: GRP94 was purified from porcine pancreas rough microsomes; from tissue; host or cells: porcine pancreas rough microsomes. To be noted: ten-fold molar excess of bis-ANS. As to the method:
Native Blue Electrophoresis. The oligomeric state of GRP94 was assayed by blue native polyacrylamide gel electrophoresis (BN-PAGE) as described by Schagger et al. (1994) Anal Biochem 217:220–230. GRP94 was either heat shocked or exposed to a 10-fold molar excess of bis-ANS for the indicated times. Samples were then dissolved in 15% glycerol and loaded onto 5–18% gradient gels with 0.02% Coomassie Brilliant Blue in the cathode buffer. Gels were run at 4° C., stained with Coomassie Blue, de-stained and dried.
When purified from tissue, GRP94 exists as a homodimer, as described by Wearsch & Nicchitta (1996a) Prot Express Purif 7(1):114–21; Nemoto et al. (1996) J Biochem 120:249–256. Following heat shock however, GRP94 forms higher molecular weight complexes, as described by Wearsch et al. (1998) Biochemistry 37:5709–5719. To further characterize the effects of bis-ANS on GRP94 structure, the oligomerization states of native, heat shocked and bis-ANS treated GRP94 were assayed by the blue native polyacrylamide gel electrophoresis (BN-PAGE) technique described by Schagger et al. (1994). In these experiments, GRP94 was incubated with bis-ANS or briefly heat shocked and subsequently incubated at 37° C. The samples were then analyzed by BN-PAGE. […] However, exposure to heat shock causes a relatively rapid formation of tetramers, hexamers, and octamers (FIG. 4, lanes 2–4).

Test [13] has as its target T1, GRP94. Nature of the test: Conformational analysis by tryptic proteolysis and SDS-PAGE. The test is classed as biochemical, porcine. Set-up: GRP94 was purified from porcine pancreas rough microsomes; from tissue; host or cells: porcine pancreas rough microsomes. To be noted: 5 μM GRP94, 50 μM bis-ANS one hour at 37° C., 0.1% trypsin.

T1 sequence (Q29092 22-804): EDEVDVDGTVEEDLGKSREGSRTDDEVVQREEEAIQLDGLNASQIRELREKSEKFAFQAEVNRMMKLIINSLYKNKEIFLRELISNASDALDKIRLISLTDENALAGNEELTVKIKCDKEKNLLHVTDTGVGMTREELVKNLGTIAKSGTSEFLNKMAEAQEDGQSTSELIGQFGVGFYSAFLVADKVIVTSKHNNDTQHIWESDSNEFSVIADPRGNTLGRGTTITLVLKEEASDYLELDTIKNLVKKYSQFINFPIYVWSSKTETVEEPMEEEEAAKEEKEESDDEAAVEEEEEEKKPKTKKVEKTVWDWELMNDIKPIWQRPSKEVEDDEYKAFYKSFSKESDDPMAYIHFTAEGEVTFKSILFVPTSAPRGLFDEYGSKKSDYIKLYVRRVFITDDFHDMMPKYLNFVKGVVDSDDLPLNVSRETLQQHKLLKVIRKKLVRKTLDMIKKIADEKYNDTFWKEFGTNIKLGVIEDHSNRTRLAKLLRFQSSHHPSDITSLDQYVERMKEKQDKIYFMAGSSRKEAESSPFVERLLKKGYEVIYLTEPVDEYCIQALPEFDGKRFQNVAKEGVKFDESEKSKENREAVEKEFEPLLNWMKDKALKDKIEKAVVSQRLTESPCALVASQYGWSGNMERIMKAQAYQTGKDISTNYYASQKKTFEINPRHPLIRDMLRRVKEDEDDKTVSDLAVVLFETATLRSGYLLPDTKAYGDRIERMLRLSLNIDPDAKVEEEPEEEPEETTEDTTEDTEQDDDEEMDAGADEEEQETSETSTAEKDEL
N-terminal nucleotide binding pocket of Hsp90, sequence (P02829 whole entry): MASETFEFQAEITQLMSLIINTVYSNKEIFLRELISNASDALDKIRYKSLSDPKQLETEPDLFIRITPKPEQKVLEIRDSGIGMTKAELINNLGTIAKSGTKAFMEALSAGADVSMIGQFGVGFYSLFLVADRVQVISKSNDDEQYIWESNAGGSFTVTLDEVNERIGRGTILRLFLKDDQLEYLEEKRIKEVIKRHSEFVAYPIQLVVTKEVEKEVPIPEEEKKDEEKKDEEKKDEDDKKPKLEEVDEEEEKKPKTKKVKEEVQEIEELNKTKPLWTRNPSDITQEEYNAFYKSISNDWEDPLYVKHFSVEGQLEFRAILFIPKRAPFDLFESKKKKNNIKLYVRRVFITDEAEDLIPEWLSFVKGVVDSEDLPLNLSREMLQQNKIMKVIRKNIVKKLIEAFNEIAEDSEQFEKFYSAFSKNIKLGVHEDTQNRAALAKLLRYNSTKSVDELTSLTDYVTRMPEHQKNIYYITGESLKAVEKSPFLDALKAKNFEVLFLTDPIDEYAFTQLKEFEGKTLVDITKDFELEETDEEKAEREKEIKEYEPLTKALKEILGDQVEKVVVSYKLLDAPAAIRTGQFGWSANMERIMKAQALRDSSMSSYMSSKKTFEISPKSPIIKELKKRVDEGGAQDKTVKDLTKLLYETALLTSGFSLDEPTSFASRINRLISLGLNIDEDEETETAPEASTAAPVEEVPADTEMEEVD

As for `Nc1ncnc2c1ncn2[C@@H]1O[C@H](COP(=O)(O)OP(=O)(O)OP(=O)(O)O)[C@@H](O)[C@H]1O` [ATP], in test [1], the Kd was 132 µM. The “ATP binding to BiP” value in the test with BiP is “displayed the expected ATP binding activity”. For the same molecule, the “ATP binding to GRP94” value on GRP94 [2] is reported as “no ATP binding was observed”. The “change of GRP94 tryptophan fluorescence” value at GRP94 [3] is “the tryptophan fluorescence was decreased”. In addition, the “molar excess of competitor required for 50% inhibition of [3H]-NECA binding” value at GRP94 [4] (20 nM [3H]-NECA) was ~1000 -fold molar excess. The “competition with [3H]-NECA for binding to GRP94 (adenosine ligands)” value at GRP94 [4] (20 nM [3H]-NECA, nominal (80 μM) Mg2+) is on record as “effectively competed”. Moreover, the “effect of excess Mg2+ on binding to GRP94” value at GRP94 [4] (10 mM Mg(OAc)2 vs nominal endogenous magnesium) is given as “markedly stimulated”. Moreover, the “extent of competition of NECA binding to GRP94” value on GRP94 [4] (FIGS. 10A–10C) is “wholly competed”. Also, the “nucleoside base specificity: binding by [3H]-NECA competitive displacement” value at GRP94 [4] (competitors all at 50 μM, 20 nM [3H]-NECA) is on record as “could bind”. Also, at GRP94 [4] (excess Mg2+), the “relative affinities for GRP94 in presence of Mg2+” value is “nearly identical relative affinities”. Further, on GRP94 [4] (nominal Mg2+), the “efficacy of competing NECA binding, ATP relative to ADP” value is on record as “eight-fold higher efficacy than ADP”. In addition, the “ATP binding to Hsp90” value in the test on Hsp90 [5] is recorded as “no ATP binding was observed”.

As to “4,4′-dianilino-1,1-binaphthyl-5,5-disulfonic acid [bis-ANS]”, the “trypsin proteolysis pattern of HSP90 (conformation)” value in the test with HSP90 [6] is given as “Essentially identical proteolysis patterns were observed following either heat shock or bis-ANS treatment of HSP90”. For the same molecule, the “site of bis-ANS binding to GRP94” value at GRP94 [7] is on record as “residues 271–281 of the N-terminal domain of GRP94”. The “stimulation of GRP94 peptide binding activity over native protein” value at GRP94 [8] is “four to five-fold”. Besides, at GRP94 [9] (0.5 μM native GRP94, 5 μM probe, 30 min at 37° C.), the “fluorophore binding to native GRP94” value is “bi-phasic”. Besides, the “saturability of bis-ANS binding” value on GRP94 [9] (heat shocked GRP94) is recorded as “binds in a saturable manner to heat shocked GRP94”. Also, at GRP94 [9] (heat shocked GRP94, fixed bis-ANS 50 nM), the “near maximal bis-ANS binding, molar excess of GRP94 monomer over bis-ANS” value is 20 -fold molar excess. Also, the “bis-ANS binding to native GRP94 following extended incubations” value on GRP94 [9] (native GRP94, extended incubation (20 hours)) is recorded as “a level of fluorophore binding similar to that seen with heat shocked GRP94 was observed”. In addition, the Kd on GRP94 [9] (read-out: half maximal binding of bis-ANS to heat shocked GRP94, fixed bis-ANS 50 nM, increasing heat shocked GRP94, emission 475 nm) stood at 110 nM. Further, the “GRP94 secondary structure (CD spectra)” value on GRP94 [10] is reported as “does not alter GRP94 secondary structure”. Moreover, the “citrate synthase thermal aggregation in presence of compound-treated GRP94” value at GRP94 [11] is given as “no thermal aggregation of citrate synthase was detectable”. Also, the “GRP94 quaternary structure (oligomerization)” value on GRP94 [12] was “induces changes in the quaternary structure of GRP94 that mimic those seen upon heat shock”. The “trypsin proteolysis pattern of GRP94 (conformation)” value at GRP94 [13] is “substantially reduced recovery of the prominent proteolysis products”.
